Assay results reported in ChEMBL document CHEMBL4312017, “Synthesis and discovery of new compounds bearing coumarin scaffold for the treatment of pulmonary fibrosis” (Eur J Med Chem, 2020).
The source made the active and inactive calls. The calls are words filed in the database; no cut-off is given here.

What was measured:
[1] = Toxicity in BLM-induced C57BL/6 mouse pulmonary fibrosis model assessed as survival rate at 50 and 100 mg/kg, po observed for 28 days; format: organism-based; details: in vivo
[2] = test system: NRK-49F; test: Inhibition of TGF-beta-induced collagen accumulation in rat NRK-49F cells at 10 uM incubated for 2 days by PSR staining based microscopic analysis relative to control; format: functional; details: 48 h
[3] = Cytotoxicity against rat NRK-49F cells assessed as cell viability at 10 uM incubated for 72 hrs by MTT assay; format: cell-based; details: read-out: Activity
[4] = test system: NRK-49F; test: Inhibition of TGF-beta-induced collagen accumulation in rat NRK-49F cells incubated for 2 days by PSR staining based microscopic analysis; format: functional, cell-based
[5] = test system: NIH3T3; test: Inhibition of TGF-beta-induced […] migration in mouse NIH/3T3 cells at 1 uM incubated for 24 hrs by Transwell assay; format: functional, cell-based
[6] = target: T1, Transforming growth factor beta-1 proprotein/Smad3 (Rattus norvegicus) (UniProt P84025+P17246); test: Inhibition of TGFbeta/Smad3 pathway in rat NRK-49F cells assessed as reduction in TGF-beta1-induced COL1A1 expression in at 20 and 40 uM incubated for 24 hrs by Western blot analysis; format: cell-based
[7] = target: T1, Transforming growth factor beta-1 proprotein/Smad3 (Rattus norvegicus); test: Inhibition of TGFbeta/Smad3 pathway in rat NRK-49F cells assessed as reduction in TGF-beta1-induced alpha-SMA expression in at 20 and 40 uM incubated for 24 hrs by Western blot analysis; format: cell-based
[8] = target: T1, Transforming growth factor beta-1 proprotein/Smad3 (Rattus norvegicus); test: Inhibition of TGFbeta/Smad3 pathway in rat NRK-49F cells assessed as reduction in TGF-beta1-induced Smad3 phosphorylation at 20 and 40 uM incubated for 24 hrs by Western blot analysis; format: cell-based
[9] = Cmax in Sprague-Dawley rat at 5 mg/kg, iv measured upto 24 hrs; format: ADME, organism-based; parameters: dose 5 mg/kg, route intravenous; details: in vivo
[10] = Tmax in Sprague-Dawley rat at 5 mg/kg, iv measured upto 24 hrs; format: ADME, organism-based; details: in vivo
[11] = Half life in Sprague-Dawley rat at 5 mg/kg, iv measured upto 24 hrs; format: ADME, organism-based; details: in vivo
[12] = AUC (0 to t) in Sprague-Dawley rat at 5 mg/kg, iv measured upto 24 hrs; format: ADME, organism-based; parameters: dose 5 mg/kg, time < 24 hr, route intravenous; details: in vivo
[13] = Cmax in Sprague-Dawley rat at 10 mg/kg, po measured upto 24 hrs; format: ADME, organism-based; parameters: dose 10 mg/kg, route oral; details: in vivo
[14] = Tmax in Sprague-Dawley rat 10 mg/kg, po measured upto 24 hrs; format: ADME, organism-based; details: in vivo
[15] = Half life in Sprague-Dawley rat 10 mg/kg, po measured upto 24 hrs; format: ADME, organism-based; details: in vivo
[16] = AUC (0 to t) in Sprague-Dawley rat 10 mg/kg, po measured upto 24 hrs; format: ADME, organism-based; parameters: time < 24 hr, dose 10 mg/kg, route oral; details: in vivo
[17] = Oral bioavailability in Sprague-Dawley rat 10 mg/kg measured upto 24 hrs; format: ADME, organism-based; details: in vivo
[18] = Clearance in Sprague-Dawley rat 10 mg/kg, po measured upto 24 hrs; format: ADME, organism-based; details: in vivo
[19] = test system: Mus musculus; test: Antifibrotic activity against C57BL/6 mouse pulmonary fibrosis model assessed as reduction in bleomycin-iduced hydroxyproline level at 50 mg/kg, po administered for 28 days and measured on day 14 and 28 by spectrophotometry; format: functional, organism-based
[20] = test system: Mus musculus; test: Antifibrotic activity against C57BL/6 mouse pulmonary fibrosis model assessed as reduction in bleomycin-iduced hydroxyproline level at 100 mg/kg, po administered for 28 days and measured on day 14 and 28 by spectrophotometry; format: functional, organism-based
[21] = test system: Mus musculus; test: Antifibrotic activity against BLM-induced C57BL/6 mouse pulmonary fibrosis model assessed as decrease in bronchiolar epithelial cell shedding at 50 mg/kg, po administered for 28 days and measured on day 14 and 28 by HE staining based fluorescence microscopy; format: functional, organism-based
[22] = test system: Mus musculus; test: Antifibrotic activity against BLM-induced C57BL/6 mouse pulmonary fibrosis model assessed as decrease in bronchioles inflammatory cell infiltration at 50 mg/kg, po administered for 28 days and measured on day 14 and 28 by HE staining based fluorescence microscopy; format: functional, organism-based
[23] = test system: Mus musculus; test: Antifibrotic activity against BLM-induced C57BL/6 mouse pulmonary fibrosis model assessed as decrease in perivascular inflammatory cell infiltration at 50 mg/kg, po administered for 28 days and measured on day 14 and 28 by HE staining based fluorescence microscopy; format: functional, organism-based
[24] = test system: Mus musculus; test: Antifibrotic activity against BLM-induced C57BL/6 mouse pulmonary fibrosis model assessed as decrease in bronchial epithelial vacuolar degeneration at 50 mg/kg, po administered for 28 days and measured on day 14 and 28 by HE staining based fluorescence microscopy; format: functional, organism-based
[25] = test system: Mus musculus; test: Antifibrotic activity against BLM-induced C57BL/6 mouse pulmonary fibrosis model assessed as decrease in bronchiolar epithelial cell shedding at 100 mg/kg, po administered for 28 days and measured on day 14 and 28 by HE staining based fluorescence microscopy; format: functional, organism-based
[26] = test system: Mus musculus; test: Antifibrotic activity against BLM-induced C57BL/6 mouse pulmonary fibrosis model assessed as decrease in bronchioles inflammatory cell infiltration at 100 mg/kg, po administered for 28 days and measured on day 14 and 28 by HE staining based fluorescence microscopy; format: functional, organism-based
[27] = test system: Mus musculus; test: Antifibrotic activity against BLM-induced C57BL/6 mouse pulmonary fibrosis model assessed as decrease in perivascular inflammatory cell infiltration at 100 mg/kg, po administered for 28 days and measured on day 14 and 28 by HE staining based fluorescence microscopy; format: functional, organism-based
[28] = test system: Mus musculus; test: Antifibrotic activity against BLM-induced C57BL/6 mouse pulmonary fibrosis model assessed as decrease in bronchial epithelial vacuolar degeneration at 100 mg/kg, po administered for 28 days and measured on day 14 and 28 by HE staining based fluorescence microscopy; format: functional, organism-based
[29] = test system: Mus musculus; test: Antifibrotic activity against BLM-induced C57BL/6 mouse pulmonary fibrosis model assessed as reduction in total white blood cells in BALF at 50 mg/kg, po administered for 28 days and measured on day 28; format: functional, organism-based
[30] = test system: Mus musculus; test: Antifibrotic activity against BLM-induced C57BL/6 mouse pulmonary fibrosis model assessed as reduction in neutrophils in BALF at 50 mg/kg, po administered for 28 days and measured on day 28; format: functional, organism-based
[31] = test system: Mus musculus; test: Antifibrotic activity against BLM-induced C57BL/6 mouse pulmonary fibrosis model assessed as reduction in lymphocytes in BALF at 50 mg/kg, po administered for 28 days and measured on day 28; format: functional, organism-based
[32] = test system: Mus musculus; test: Antifibrotic activity against BLM-induced C57BL/6 mouse pulmonary fibrosis model assessed as reduction in total white blood cells in BALF at 100 mg/kg, po administered for 28 days and measured on day 28; format: functional, organism-based
[33] = test system: Mus musculus; test: Antifibrotic activity against BLM-induced C57BL/6 mouse pulmonary fibrosis model assessed as reduction in neutrophils in BALF at 100 mg/kg, po administered for 28 days and measured on day 28; format: functional, organism-based
[34] = test system: Mus musculus; test: Antifibrotic activity against BLM-induced C57BL/6 mouse pulmonary fibrosis model assessed as reduction in lymphocytes in BALF at 100 mg/kg, po administered for 28 days and measured on day 28; format: functional, organism-based
[35] = test system: Mus musculus; test: Antifibrotic activity against BLM-induced C57BL/6 mouse pulmonary fibrosis model assessed as increase in time for reduction of alveoli at 50 mg/kg, po administered for 28 days and measured on day 14 and 28 by HE staining based fluorescence microscopy; format: functional, organism-based
[36] = test system: Mus musculus; test: Antifibrotic activity against BLM-induced C57BL/6 mouse pulmonary fibrosis model assessed as decrease in destruction alveolar structure at 50 mg/kg, po administered for 28 days and measured on day 14 and 28 by HE staining based fluorescence microscopy; format: functional, organism-based
[37] = test system: Mus musculus; test: Antifibrotic activity against BLM-induced C57BL/6 mouse pulmonary fibrosis model assessed as increase in time for reduction of alveoli at 100 mg/kg, po administered for 28 days and measured on day 14 and 28 by HE staining based fluorescence microscopy; format: functional, organism-based
[38] = test system: Mus musculus; test: Antifibrotic activity against BLM-induced C57BL/6 mouse pulmonary fibrosis model assessed as decrease in destruction alveolar structure at 100 mg/kg, po administered for 28 days and measured on day 14 and 28 by HE staining based fluorescence microscopy; format: functional, organism-based

T1 sequence (P17246 whole entry, looked up): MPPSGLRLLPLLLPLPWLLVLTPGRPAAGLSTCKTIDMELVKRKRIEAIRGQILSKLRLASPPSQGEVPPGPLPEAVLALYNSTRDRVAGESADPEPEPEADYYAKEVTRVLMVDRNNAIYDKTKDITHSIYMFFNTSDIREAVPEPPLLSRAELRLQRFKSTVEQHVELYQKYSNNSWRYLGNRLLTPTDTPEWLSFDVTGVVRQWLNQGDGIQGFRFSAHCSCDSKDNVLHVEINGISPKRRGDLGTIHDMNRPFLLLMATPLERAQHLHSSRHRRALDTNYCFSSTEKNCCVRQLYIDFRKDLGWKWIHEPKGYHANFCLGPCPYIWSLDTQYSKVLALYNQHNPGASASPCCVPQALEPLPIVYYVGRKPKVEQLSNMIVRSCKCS
T1 sequence (P84025 whole entry, looked up): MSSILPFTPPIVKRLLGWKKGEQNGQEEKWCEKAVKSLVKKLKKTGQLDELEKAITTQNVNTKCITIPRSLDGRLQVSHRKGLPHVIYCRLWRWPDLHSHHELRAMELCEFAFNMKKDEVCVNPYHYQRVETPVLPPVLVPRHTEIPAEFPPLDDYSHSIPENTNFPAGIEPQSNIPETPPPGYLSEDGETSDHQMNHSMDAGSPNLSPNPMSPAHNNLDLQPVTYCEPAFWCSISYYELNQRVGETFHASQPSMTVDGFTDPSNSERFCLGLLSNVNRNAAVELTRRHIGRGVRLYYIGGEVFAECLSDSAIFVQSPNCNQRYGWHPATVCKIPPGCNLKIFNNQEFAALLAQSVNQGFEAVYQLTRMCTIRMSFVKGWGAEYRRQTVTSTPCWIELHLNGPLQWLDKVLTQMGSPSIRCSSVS

O=C(CN1CCCCC1)Nc1ccc(Oc2cc(=O)oc3ccccc23)cc1
survival at 672 h [1]: 90% | inhibition at 10 µM [2]: 85.1% | viability at 72 h, 10 µM [3]: 93.6% | inhibition [4]: Dose-dependent effect | IC50 ([4]; 48 h): 4.31 µM | inhibition [5]: Active | inhibition [6]: Active | inhibition [7]: Active | inhibition [8]: Active | Cmax [9]: 316 ng/mL | Tmax [10]: 2.68 h | half-life [11]: 7.42 h | AUC(0-t) at 24 h [12]: 1390 ng·h/mL | Cmax [13]: 74.7 ng/mL | Tmax [14]: 0.63 h | half-life [15]: 13.1 h | AUC(0-t) at 24 h [16]: 1100 ng·h/mL | bioavailability [17]: 39.9% | CL/F [18]: 108 mL/min/kg | Activity [19]: inactive | Activity [20]: Active | Activity [21]: Active | Activity [22]: Active | Activity [23]: Active | Activity [24]: Active | Activity [25]: Active | Activity [26]: Active | Activity [27]: Active | Activity [28]: Active | Activity [29]: Active | Activity [30]: Active | Activity [31]: Active | Activity [32]: Active | Activity [33]: Active | Activity [34]: Active | Activity [35]: Active | Activity [36]: Active | Activity [37]: Active | Activity [38]: Active
